Results as given in PMC8306566 (Marine Drugs, 2021).

Key:
Assay in all cases: cell-based
rα2β2 nAChR = rα2β2 nAChR (Rattus norvegicus, UniProt P12389+P12390)
rα3β2 nAChR = rα3β2 nAChR (Rattus norvegicus, UniProt P04757+P12390)
rα6/α3β2β3 nAChR = rα6/α3β2β3 nAChR (Rattus norvegicus, UniProt P04757+P12390+P12391+P43143)
rα4β4 nAChR = rα4β4 nAChR (Rattus norvegicus, UniProt P09483+P12392)
rα2β4 nAChR = rα2β4 nAChR (Rattus norvegicus, UniProt P12389+P12392)
rα3β4 nAChR = rα3β4 nAChR (Rattus norvegicus, UniProt P04757+P12392); assay type: cell-based
rα3β4 nAChR, sequence (P04757 26-499 limits assumed): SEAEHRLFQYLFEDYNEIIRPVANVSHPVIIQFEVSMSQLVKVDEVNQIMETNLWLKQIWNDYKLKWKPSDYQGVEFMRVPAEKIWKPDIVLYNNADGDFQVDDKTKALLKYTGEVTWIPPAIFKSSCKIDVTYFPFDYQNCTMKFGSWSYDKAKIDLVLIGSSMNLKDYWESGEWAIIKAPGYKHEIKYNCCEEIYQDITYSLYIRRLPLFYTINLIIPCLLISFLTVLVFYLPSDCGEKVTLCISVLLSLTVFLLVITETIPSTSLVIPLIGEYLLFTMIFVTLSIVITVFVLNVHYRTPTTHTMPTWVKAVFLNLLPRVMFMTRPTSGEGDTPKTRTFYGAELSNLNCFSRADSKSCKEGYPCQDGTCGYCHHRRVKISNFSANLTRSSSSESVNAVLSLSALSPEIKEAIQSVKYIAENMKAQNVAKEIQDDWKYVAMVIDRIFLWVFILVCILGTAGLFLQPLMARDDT
rα3β4 nAChR, sequence (P12392 21-495 limits assumed): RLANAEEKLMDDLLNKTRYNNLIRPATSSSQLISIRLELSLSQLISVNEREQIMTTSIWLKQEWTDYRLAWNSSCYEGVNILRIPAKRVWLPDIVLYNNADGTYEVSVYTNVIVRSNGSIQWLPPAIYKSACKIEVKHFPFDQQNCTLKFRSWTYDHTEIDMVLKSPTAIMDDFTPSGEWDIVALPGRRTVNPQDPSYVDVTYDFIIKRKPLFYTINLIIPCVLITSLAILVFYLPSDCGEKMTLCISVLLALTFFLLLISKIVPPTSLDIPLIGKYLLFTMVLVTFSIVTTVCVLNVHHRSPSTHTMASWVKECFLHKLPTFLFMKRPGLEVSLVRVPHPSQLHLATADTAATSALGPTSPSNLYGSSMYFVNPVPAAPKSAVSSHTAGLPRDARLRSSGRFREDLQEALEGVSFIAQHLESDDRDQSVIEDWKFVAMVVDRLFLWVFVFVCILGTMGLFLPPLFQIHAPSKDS

rα7 nAChR = rα7 nAChR (Rattus norvegicus, UniProt Q05941)
rα9α10 nAChR = rα9α10 nAChR (Rattus norvegicus, UniProt P43144+Q9JLB5)
rα4β2 nAChR = rα4β2 nAChR (Rattus norvegicus, UniProt P09483+P12390)
rα6/α3β4 nAChR = rα6/α3β4 nAChR (Rattus norvegicus, UniProt P04757+P12392+P43143)
rα6/α3β4 nAChR, sequence (P04757 whole entry, looked up): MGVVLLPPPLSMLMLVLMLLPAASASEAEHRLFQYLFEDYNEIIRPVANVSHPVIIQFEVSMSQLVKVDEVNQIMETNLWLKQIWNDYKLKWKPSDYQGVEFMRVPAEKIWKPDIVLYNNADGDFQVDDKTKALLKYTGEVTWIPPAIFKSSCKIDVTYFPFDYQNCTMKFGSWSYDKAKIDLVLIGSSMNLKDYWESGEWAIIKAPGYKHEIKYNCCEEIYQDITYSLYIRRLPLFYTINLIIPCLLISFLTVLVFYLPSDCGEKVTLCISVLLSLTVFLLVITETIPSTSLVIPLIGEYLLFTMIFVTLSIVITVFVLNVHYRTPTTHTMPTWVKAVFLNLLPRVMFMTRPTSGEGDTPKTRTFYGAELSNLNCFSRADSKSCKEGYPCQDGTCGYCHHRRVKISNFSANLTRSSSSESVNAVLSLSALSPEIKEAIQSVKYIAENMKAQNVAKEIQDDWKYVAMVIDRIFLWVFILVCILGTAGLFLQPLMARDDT
rα6/α3β4 nAChR, sequence (P12392 whole entry, looked up): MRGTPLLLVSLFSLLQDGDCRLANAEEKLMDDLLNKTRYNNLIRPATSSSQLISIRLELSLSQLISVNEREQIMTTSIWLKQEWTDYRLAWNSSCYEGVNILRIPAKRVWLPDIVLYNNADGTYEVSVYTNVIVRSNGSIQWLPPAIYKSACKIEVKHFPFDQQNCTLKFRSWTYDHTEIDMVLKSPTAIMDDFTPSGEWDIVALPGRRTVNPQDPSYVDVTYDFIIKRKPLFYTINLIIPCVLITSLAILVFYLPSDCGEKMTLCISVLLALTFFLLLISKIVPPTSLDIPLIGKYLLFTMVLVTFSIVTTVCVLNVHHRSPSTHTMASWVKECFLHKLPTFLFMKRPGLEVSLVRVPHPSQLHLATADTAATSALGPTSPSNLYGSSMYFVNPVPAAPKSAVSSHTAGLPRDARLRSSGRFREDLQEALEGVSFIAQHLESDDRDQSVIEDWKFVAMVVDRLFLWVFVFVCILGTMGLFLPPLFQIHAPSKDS
rα6/α3β4 nAChR, sequence (P43143 whole entry, looked up): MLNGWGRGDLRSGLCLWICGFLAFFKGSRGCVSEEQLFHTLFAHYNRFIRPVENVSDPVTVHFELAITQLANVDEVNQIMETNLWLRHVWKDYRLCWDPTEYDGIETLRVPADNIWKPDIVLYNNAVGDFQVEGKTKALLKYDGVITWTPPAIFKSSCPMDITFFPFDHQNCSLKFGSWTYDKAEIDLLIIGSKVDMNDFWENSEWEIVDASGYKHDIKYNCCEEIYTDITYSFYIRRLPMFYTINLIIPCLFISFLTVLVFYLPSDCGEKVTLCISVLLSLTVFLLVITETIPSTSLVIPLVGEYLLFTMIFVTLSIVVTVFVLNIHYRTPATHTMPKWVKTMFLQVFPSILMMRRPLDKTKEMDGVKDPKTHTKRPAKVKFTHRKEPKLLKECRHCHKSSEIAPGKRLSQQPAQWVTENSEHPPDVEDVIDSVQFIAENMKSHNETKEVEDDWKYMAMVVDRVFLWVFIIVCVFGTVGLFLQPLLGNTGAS

rα6/α3β2β3 nAChR, sequence (P04757 whole entry, looked up): as the sequence (P04757 whole entry, looked up) above
rα6/α3β2β3 nAChR, sequence (P12390 whole entry, looked up): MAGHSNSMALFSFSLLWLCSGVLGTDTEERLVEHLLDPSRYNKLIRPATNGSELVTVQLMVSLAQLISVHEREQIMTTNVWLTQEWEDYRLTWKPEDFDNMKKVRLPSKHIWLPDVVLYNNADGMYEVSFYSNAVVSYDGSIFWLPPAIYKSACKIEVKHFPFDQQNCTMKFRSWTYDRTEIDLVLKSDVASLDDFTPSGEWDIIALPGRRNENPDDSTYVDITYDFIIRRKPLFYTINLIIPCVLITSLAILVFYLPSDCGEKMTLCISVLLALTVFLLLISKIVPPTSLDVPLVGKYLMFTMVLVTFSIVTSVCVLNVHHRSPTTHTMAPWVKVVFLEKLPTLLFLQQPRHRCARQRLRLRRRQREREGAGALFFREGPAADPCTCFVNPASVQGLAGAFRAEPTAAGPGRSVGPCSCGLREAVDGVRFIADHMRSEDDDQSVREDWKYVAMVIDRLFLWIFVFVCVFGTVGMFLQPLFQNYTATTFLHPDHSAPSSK
rα6/α3β2β3 nAChR, sequence (P12391 whole entry, looked up): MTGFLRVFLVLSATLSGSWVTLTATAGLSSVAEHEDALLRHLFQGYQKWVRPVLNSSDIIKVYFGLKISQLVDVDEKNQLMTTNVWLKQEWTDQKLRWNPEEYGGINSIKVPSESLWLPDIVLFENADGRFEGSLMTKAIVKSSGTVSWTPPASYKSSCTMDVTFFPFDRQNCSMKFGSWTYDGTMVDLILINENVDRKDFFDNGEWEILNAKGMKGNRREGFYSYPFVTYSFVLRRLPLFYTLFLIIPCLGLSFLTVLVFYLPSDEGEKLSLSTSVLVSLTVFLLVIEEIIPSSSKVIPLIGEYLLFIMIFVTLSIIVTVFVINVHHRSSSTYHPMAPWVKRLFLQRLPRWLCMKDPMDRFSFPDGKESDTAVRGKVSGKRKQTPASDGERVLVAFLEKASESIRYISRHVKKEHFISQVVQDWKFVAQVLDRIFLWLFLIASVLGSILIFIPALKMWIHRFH
rα6/α3β2β3 nAChR, sequence (P43143 whole entry, looked up): as the sequence (P43143 whole entry, looked up) above
rα3β2 nAChR, sequence (P04757 26-499 limits assumed): as the sequence (P04757 26-499 limits assumed) above
rα3β2 nAChR, sequence (P12390 25-500 limits assumed): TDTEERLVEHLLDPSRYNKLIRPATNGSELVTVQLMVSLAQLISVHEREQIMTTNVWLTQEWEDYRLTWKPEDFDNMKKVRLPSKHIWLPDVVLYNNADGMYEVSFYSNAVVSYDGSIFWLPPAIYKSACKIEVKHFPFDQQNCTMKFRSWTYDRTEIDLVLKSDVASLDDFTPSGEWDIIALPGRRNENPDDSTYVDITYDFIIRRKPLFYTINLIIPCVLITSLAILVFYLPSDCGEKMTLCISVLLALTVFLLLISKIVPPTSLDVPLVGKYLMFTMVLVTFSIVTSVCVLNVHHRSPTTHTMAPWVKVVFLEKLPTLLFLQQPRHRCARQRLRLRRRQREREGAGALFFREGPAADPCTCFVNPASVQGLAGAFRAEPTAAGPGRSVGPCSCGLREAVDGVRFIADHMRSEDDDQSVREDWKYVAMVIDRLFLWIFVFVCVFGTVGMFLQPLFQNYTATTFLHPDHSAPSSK
rα2β4 nAChR, sequence (P12389 28-511 limits assumed): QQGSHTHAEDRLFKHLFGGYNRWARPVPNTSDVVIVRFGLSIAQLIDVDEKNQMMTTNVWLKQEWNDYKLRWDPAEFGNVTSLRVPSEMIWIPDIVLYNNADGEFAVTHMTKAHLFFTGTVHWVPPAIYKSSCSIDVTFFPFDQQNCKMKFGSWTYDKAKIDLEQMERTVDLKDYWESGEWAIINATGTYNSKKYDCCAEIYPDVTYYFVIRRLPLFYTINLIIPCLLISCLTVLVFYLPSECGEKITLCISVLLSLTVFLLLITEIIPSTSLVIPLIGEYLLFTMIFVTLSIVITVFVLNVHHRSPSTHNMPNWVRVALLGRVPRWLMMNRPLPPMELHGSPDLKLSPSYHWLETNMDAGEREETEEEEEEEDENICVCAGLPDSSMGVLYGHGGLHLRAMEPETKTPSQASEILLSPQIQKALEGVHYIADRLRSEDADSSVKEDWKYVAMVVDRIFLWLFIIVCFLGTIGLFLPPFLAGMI
rα2β4 nAChR, sequence (P12392 21-495 limits assumed): as the sequence (P12392 21-495 limits assumed) above
rα2β2 nAChR, sequence (P12389 28-511 limits assumed): as the sequence (P12389 28-511 limits assumed) above
rα2β2 nAChR, sequence (P12390 25-500 limits assumed): as the sequence (P12390 25-500 limits assumed) above

## CC[C@H](C)[C@@H]1NC(=O)[C@H](CC(=O)O)NC(=O)[C@H](CCC(N)=O)NC(=O)[C@H](CC(N)=O)NC(=O)[C@H](CC(N)=O)NC(=O)CNC(=O)[C@H](C)NC(=O)[C@@H]2CSSC[C@H](NC(=O)CN)C(=O)N[C@@H](CSSC[C@@H](C(N)=O)NC1=O)C(=O)N[C@@H](CO)C(=O)N[C@@H](Cc1c[nH]cn1)C(=O)N1CCC[C@H]1C(=O)N[C@@H](C)C(=O)N2 [LvIF]
rα2β2 nAChR
  IC50: > 10 µM
rα2β2 nAChR; read-out: inhibition at 10 μM
  inhibition at 10 µM: 6.7 ± 4.5%
rα3β2 nAChR
  IC50: 0.00898 µM
rα3β2 nAChR; read-out: inhibition at 10 nM
  inhibition at 0.01 µM: ~57%
rα3β2 nAChR; read-out: inhibition at 10 μM
  inhibition at 10 µM: 98.3 ± 0.6%
rα6/α3β2β3 nAChR
  IC50: 0.0144 µM
rα6/α3β2β3 nAChR; read-out: inhibition at 10 nM
  inhibition at 0.01 µM: ~39%
rα6/α3β2β3 nAChR; read-out: inhibition at 10 μM
  inhibition at 10 µM: 98.3 ± 0.3%
rα4β4 nAChR
  IC50: > 10 µM
rα4β4 nAChR; read-out: inhibition at 10 μM
  inhibition at 10 µM: 8.6 ± 4.2%
rα2β4 nAChR
  IC50: > 10 µM
rα2β4 nAChR; read-out: inhibition at 10 μM
  inhibition at 10 µM: 9.5 ± 2.4%
rα3β4 nAChR
  IC50: > 10 µM
  inhibition at 1 μM: no inhibition
rα7 nAChR
  IC50: > 10 µM
rα7 nAChR; read-out: inhibition at 10 μM
  inhibition at 10 µM: 12.3 ± 4.2%
rα9α10 nAChR
  IC50: > 10 µM
rα9α10 nAChR; read-out: inhibition at 10 μM
  inhibition at 10 µM: 1.31 ± 5.2%
rα4β2 nAChR
  IC50: > 10 µM
rα4β2 nAChR; read-out: inhibition at 10 μM
  inhibition at 10 µM: 4.6 ± 2.5%
rα6/α3β4 nAChR
  IC50: > 10 µM
rα6/α3β4 nAChR; read-out: inhibition at 10 μM
  inhibition at 10 µM: 2.3 ± 3.3%
